# Patent publication US20230167142A1, “METHODS FOR THE MONO-AMIDATION OF PHOSPHATES AND PHOSPHONATES” (Board of Regents, The University of Texas System, priority 2020, published 2023)
# Read-outs that look alike come from different tables or passages of the source.
# Key:
# Assay type in all cases: cell-based
# [1] = test system: ENO1-wildtype (LN319) glioma cells; assay: Crystal violet cell proliferation assay, ENO1-wildtype LN319 cells; conditions: for activity in cell proliferation assay (FIG. 1): 5 days
# Experimental: (§1) FIGS. 1A, 1B, 1C, and 1D show cell proliferation assays for enolase inhibitors HEX (1A), FLM37 (1B), CDP18 (1C), and VCY32 (1D) against (i) ENO1-deleted (D423), (ii) ENO1-rescued (D423 ENO1), and (iii) ENO1-wildtype (LN319) glioma cells. Cells were incubated with pro-drug inhibitor for 5 days. Then, cells were fixed and stained with crystal violet and quantified spectroscopically. Numerical labels indicate concentration of enolase inhibitor in nM.
# (§2) FIGS. 2A, 2B, and 2C show plots of relative cell density (vertical axis) against concentration (horizontal axis, nM) of enolase inhibitors FLM37 (2A), CDP18 (2B), and VCY32 (2C) for (i) ENO1-deleted (D423), (ii) ENO1-rescued (D423 ENO1), and (iii) ENO1-wildtype (LN319) glioma cells.
# (§3) Numerical labels indicate concentration of enolase inhibitor in nM.
# (§4) See, Leonard et al. (2016) Nat. Chem. Biol. 12:1053-1058 and Satani et al. (2016) PLos One, 11:e0168739, each of which is incorporated by reference for all purposes. Then, cells were fixed and stained with crystal violet and quantified spectroscopically. Cell density as measured by crystal violet were plotted as a function of inhibitor.
# (§5) FIGS. 1A, 1B, 1C, and 1D show representative cell proliferation assays for the compounds HEX (1A), FLM37 (1B), CDP18 (1C), and VCY32 (1D). For each compound, assays are run against (i) ENO1-deleted (D423), (ii) ENO1-rescued (D423 ENO1), and (iii) ENO1-wildtype (LN319) glioma cells.
# [2] = test system: ENO1-deleted (D423) glioma cells; assay: Crystal violet cell proliferation assay, ENO1-deleted D423 cells; conditions: for IC50: Glioma cell
# Experimental: as §1, §2, §3, §4, §5
# [3] = test system: ENO1-rescued (D423 ENO1) glioma cells; assay: cells; conditions: for activity in cell proliferation assay (FIG. 1): 5 days
# Experimental: as §1, §2, §4, §5
# [4] = LN-319, ENO1-wildtype (LN319), read-out: IC50, LN319 (ENO1+/+)
# [5] = ENO1-deleted (D423), read-out: IC50,D423 (ENO1−/−)
# [6] = Glioma cell, table of Formula V compounds, R6 = POM, read-out: IC50, D423 EN01 (ENO1 +/+)
# [7] = Glioma cell, footnote, experiment with VCY32, read-out: IC50 in reference to respective POMHEX control
# [8] = table of Formula V compounds, R6 = POM, read-out: IC50, D423 EN01 (ENO1 +/+)
molecule,measurement,setting,value
"CCCCCCCCCCCCNP(=O)(O)C1CCCN(O)C1=O (stereo not drawn) [CDP22, N-dodecyl-P-(1-hydroxy-2-oxopiperidin-3-yl)phosphonamidic acid]",inhibition / activity in ENO1-wildtype (LN319) cells (FIG. 3),[1]; ENO1-wildtype (LN319),shows activity
same,IC50,[1]; [4],844 nM
same,IC50,"[1]; LN-319, text b400, read-out: IC50 values for ENO1-wildtype (LN319) glioma cells (i) (FIGS. 4A, 4B)",24 nM
same,"level of inhibition of ENO1-deleted (D423) cells (FIG. 3), in words",[2]; ENO1-deleted (D423),sub-micromolar levels
same,IC50,[2]; [5],58 nM
"CC(C)(C)C(=O)OCOP(=O)(NCc1ccccc1)C1CCCN(O)C1=O (stereo not drawn) [FLM37, (((benzylamino)(1-hydroxy-2-oxopiperidin-3-yl)phosphoryl)oxy)methyl pivalate]",activity in cell proliferation assay (FIG. 1),[3]; ENO1-rescued (D423 ENO1),activity at the micromolar range or better
same,IC50,[3]; [6],244 nM
same,activity in cell proliferation assay (FIG. 1),[1]; ENO1-wildtype (LN319),activity at the micromolar range or better
same,activity in cell proliferation assay (FIG. 1),"[2]; ENO1-deleted (D423), 5 days",activity at the micromolar range or better
"CC(C)(C)C(=O)OCOP(=O)(OCOC(=O)C(C)(C)C)C1CCCN(O)C1=O (stereo not drawn) [POMHEX, (((1-hydroxy-2-oxopiperidin-3-yl)phosphoryl)bis(oxy))bis(methylene) bis(2,2-dimethylpropanoate), reference compound]",IC50,[3]; [7],41.5 nM
same,IC50,"[3]; Glioma cell, footnote, experiment with VCY34, read-out: IC50 in reference to respective POMHEX control",217 nM
same,IC50,[3]; [6],17.3 nM
((((Cyclohexylmethyl)amino)(1-hydro:xy-2-oxopiperidin-3-yl)phosphoryl)oxy)methyl pivalate [CDP18],activity in cell proliferation assay (FIG. 1),[3]; ENO1-rescued (D423 ENO1),activity at the micromolar range or better
same,IC50,[3]; [8],81.1 nM
same,activity in cell proliferation assay (FIG. 1),[1]; ENO1-wildtype (LN319),activity at the micromolar range or better
same,activity in cell proliferation assay (FIG. 1),"[2]; ENO1-deleted (D423), 5 days",activity at the micromolar range or better
"CC(C)(C)C(=O)OCOP(=O)(NCC1CC1)C1CCCN(O)C1=O (stereo not drawn) [VCY32, ((((Cyclopropylmethyl)amino)(1-hydroxy-2-oxopiperidin-3-yl)phosphoryl)oxy)methyl pivalate]",activity in cell proliferation assay (FIG. 1),[3]; ENO1-rescued (D423 ENO1),activity at the micromolar range or better
same,IC50,[3]; [7],22 nM
same,IC50,[3]; [6],22 nM
same,activity in cell proliferation assay (FIG. 1),[1]; ENO1-wildtype (LN319),activity at the micromolar range or better
same,activity in cell proliferation assay (FIG. 1),"[2]; ENO1-deleted (D423), 5 days",activity at the micromolar range or better
"CC(C)(C)C(=O)OCOP(=O)(NCc1cccc(F)c1)C1CCCN(O)C1=O (stereo not drawn) [CDP12, ((((3-fluorobenzyl)amino)(1-hydroxy-2-oxopiperidin-3-yl)phosphoryl)oxy)methyl pivalate]",IC50,[3]; [6],103 nM
"CN(C)P(=O)(OCOC(=O)C(C)(C)C)C1CCCN(O)C1=O (stereo not drawn) [CDP21, (((dimethylamino)(1-hydroxy-2-oxopiperidin-3-yl)phosphoryl)oxy)methyl pivalate]",IC50,"[3]; Glioma cell, read-out: IC50, D423 EN01 (ENO1 +/+)",115 nM
same,IC50,"[3]; Glioma cell, read-out: IC50,D423 ENO1 (ENO1+/+)",2170 nM
same,IC50,"[1]; LN-319, read-out: IC50, LN319 (ENO1+/+)",5060 nM
same,selectivity for ENO1-deleted cells,[2],selective for ENO1-deleted cells
same,IC50,[2]; 120 h,108 nM
same,IC50,"[2]; read-out: IC50,D423 (ENO1−/−)",108 nM
"CNP(=O)(OCOC(=O)C(C)(C)C)C1CCCN(O)C1=O (stereo not drawn) [CDP23, (((1-hydroxy-2-oxopiperidin-3-yl)(methylamino)phosphoryl)oxy)methyl pivalate]",IC50,"[3]; Glioma cell, ENO1-rescued (D423 ENO1), read-out: IC50,D423 ENO1 (ENO1+/+)",790 nM
same,IC50,[3]; [6],62.6 nM
same,IC50,[1]; [4],1500 nM
same,greater potency compared to CDP21,[2],more than 2.5 fold
same,IC50,"[2]; 120 h, D423 cells, 5 days incubation, crystal violet, read-out: IC50",40 nM
same,IC50,[2]; [5],40 nM
same,selectivity for ENO1-deleted cells,"[2]; crystal violet cell proliferation assay, 5 days",selective for ENO1-deleted cells
"CC(C)(C)C(=O)OCOP(=O)(NCc1ccccn1)C1CCCN(O)C1=O (stereo not drawn) [KY9, (((1-hydroxy-2-oxopiperidin-3-yl){(pyridin-2-ylmethyl)amino)phosphoryl)oxy)methyl pivalate]",IC50,[3]; [6],96.2 nM
"((((3,4-difluornhenzyl)amino)(1-hydro:xy-2-oxopiperidin-3-yl)phosphoryl)oxy)methyl pivalate [CDP13]",IC50,[3]; [8],84.6 nM
"CC(C)(C)C(=O)OCOP(=O)(NCc1ccc(F)cc1)C1CCCN(O)C1=O (stereo not drawn) [VCY19, ((((4-fluorobenzyl)amino)(1-hydroxy-2-oxopiperidin-3-yl)phosphoryl)oxy)methyl pivalate]",IC50,[3]; [6],129 nM
"((((2,4-difluorobenzyi)amino)(1-hydrnxy-2-oxopiperidin-3-yl)phosphoryl)oxy)methyl pivalate [CDP14]",IC50,[3]; [8],80.3 nM
